Test results reported in patent US10053445B2, “Photocleavable chemical inducers of dimerization (CID) and methods of use” (Children's Medical Center Corporation, priority 2013, dated 2018).

Experiments:
COS cells = test: peroxisome translocation assay (PEX-RFP-FKBP / DHFR-Kif 1a motor domain); type: cell-based
Description: Preliminary tests of Zapalog efficacy in COS cells were also carried out, using a peroxisome translocation assay adapted from Kapitein et al., 2010 (13) and illustrated in FIG. 4. The FKBP domain is coupled to RFP and a peroxisome-binding domain (PEX). The DHFR domain is fused to the motor domain of the kinesin Kif 1a. In the absence of a CID to couple these two proteins, the peroxisomes are stationary and located near the nucleus while the motor (visualized by immunocytochemistry) is diffuse in the cytosol (FIG. 4 DMSO). […] In a live-imaging experiment (FIG. 5), the addition of Zapalog initiated clear movement of the peroxisomes in less than 2 minutes. The dispersal of peroxisomes was reversed by exposure to a 405 nm laser. […] 5) the affinity of Zapalog in vivo is high enough to permit the transport of an organelle by a tethered motor. 6) Zapalog is photo-cleavable in vivo by 405 nm light. […] The experiments described herein seek to characterize Zapalog in sufficient detail to enable its use as a photo-cleavable CID. In particular, experiments were designed to determine the kinetics of Zapalog-induced dimerization and cleavage and whether it could be used to recreate a fully functional split kinesin for studies of motor interactions.

[1] = HPLC analysis of Zapalog before and after exposure to 405 nm light; type: physicochemical; conditions: after exposure to 405 nm light
Description: Zapalog was synthesized and 10 mg of TLC purified material was determined to be >98% pure by LCMS/HPLC and containing less than 0.1% of the monomeric ligands TMP and SLF.

COST cells = test: YFP reporter relocalization to outer mitochondrial membrane (YFP-DHFR / Tom20-mCherry-FKBP); type: cell-based
From the text: In one set of experiments, Zapalog's efficacy as a dimerizing agent and the efficacy of light-induced cleavage was examined in simple assays of subcellular localization of a YFP reporter adapted from Komatsu et al., (Komatsu et al. Nature Methods 7: 206-8) and illustrated in FIG. 7 (optionally, a GFP or other reporter could have been used). An assay of Zapalog function was developed based on tethering a YFP reporter to the outer mitochondrial membrane of COST cells. In this assay, the YFP reporter was fused to the DHFR domain and, by default, was cytosolic. The FKBP domain was bound to the outer membrane of mitochondria with the N-terminus sequence of Tom20. The FKBP construct was tagged with mCherry. […] Subsequent 405 nm illumination caused immediate (<5 sec) release of YFP back to the cytosol. This redistribution was followed in video microscopy and quantified as a ratio of membrane bound to cytoplasmic fluorescence intensity

mutated FKBP = mutated FKBP (Homo sapiens, UniProt P62942, F37V); conditions: cited from earlier work
Sequence of mutated FKBP (P62942 2-108 F37V limits assumed): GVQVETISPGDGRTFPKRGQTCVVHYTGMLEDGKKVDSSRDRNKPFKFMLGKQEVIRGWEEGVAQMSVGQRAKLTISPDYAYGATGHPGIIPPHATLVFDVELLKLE

[2] = target: FK506 Binding Protein (FKBP) (Homo sapiens, UniProt P62942); conditions: ligand independently; cited from earlier work
Sequence of FK506 Binding Protein (FKBP) (P62942 whole entry): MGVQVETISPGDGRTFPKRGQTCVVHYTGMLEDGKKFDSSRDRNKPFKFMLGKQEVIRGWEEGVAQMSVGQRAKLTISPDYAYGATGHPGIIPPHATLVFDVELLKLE

CCC(C)(C)C(=O)C(=O)N1CCCC[C@H]1C(=O)O[C@H](CCc1ccc(OC)c(OC)c1)c1cccc(NC(=O)CCCOc2cc([N+](=O)[O-])c(C(C)OCCOc3c(OC)cc(Cc4cnc(N)nc4N)cc3OC)cc2OC)c1 (stereo partly drawn) [Zapalog]
binding to DHFR and FKBP domains in vivo (COS cells): can bind to the DHFR and FKBP domains in vivo
heterodimerization (COS cells): can cause heterodimerization
toxicity to cells (COS cells): not toxic to cells
translocation of motor domain to peroxisomes and redistribution of peroxisomes (COS cells; 1 uM, in the dark, COS cells): caused the translocation of the motor domain to the peroxisomes and the redistribution of the peroxisomes to the periphery of the cell
effect of exposure of treated cells to light (COS cells; COS cells, light after CID addition): caused the motor to detach from peroxisomes and resume its diffuse distribution
time to clear movement of peroxisomes after addition (COS cells; live imaging): less than 2 minutes
dispersal of peroxisomes after 405 nm laser (COS cells; live imaging, 405 nm laser): reversed
photolytic cleavage by HPLC [1]: complete photolytic cleavage
time to relocalization of YFP to the mitochondrial surface (COST cells; 1 μM in the dark): 4 to 5 min
time to release of YFP back to the cytosol (COST cells; subsequent 405 nm illumination): < 5 s

CCC(C(=O)N1CCCCC1C(=O)O[C@H](CCc1ccc(OC)c(OC)c1)c1cccc(OCC(=O)O)c1)c1cc(OC)c(OC)c(OC)c1 (stereo partly drawn) [SLF′]
Kd (mutated FKBP): 0.094 nM

CCC(C)(C)C(=O)C(=O)N1CCCCC1C(=O)OC(CCc1ccc(OC)c(OC)c1)c1cccc(N)c1 (stereo not drawn) [SLF]
affinity [2]: ~1 nM
